What was measured:
[1] = system: ovariectomized rat osteoporosis (OVX) model; assay: Serum osteocalcin (bone formation marker) in OVX rats; format: in vivo
Method: Osteocalcin, a biochemical marker for bone formation, is a bone-specific protein secreted primarily in osteoblasts, i.e. the bone forming cells. Serum osteocalcin was measured as marker for bone formation.
(§1) In the experimental set up data were elaborated using the ovariectomized rat osteoporosis (OVX) model. This model mimics the estrogen deficient status as found in postmenopausal women or poststerilized female pets leading to osteoporosis. The SHAM group with intact ovaries served as control. Each test group consisted of 10-12 animals. The feed used was free of isoflavones, such as, for example, genistein. The test compounds in various combinations as given in Table 1 have been administered by feed admix. […] The administration of vitamin K1, in an amount of 20 μg/kg feed corresponds to a daily dosage of about 1 μg/kg BW, the estimated daily requirement of vitamin K1. The amount of vitamin D3 was 500 IU/kg feed which corresponds to a daily dosage of 25 IU/kg BW, the estimated daily requirement. For fortification, PUFA (5% of ROPUPA “30” n-3 Food Oil) was added to the feed corresponding to a PUPA fortification of % in feed as given in Table 1. Bone mineral density, osteocalcin, and deoxypyridinolin have been measured 84 days post intervention.
Serum Osteocalcin (bone formation marker) measurement in OVX rats: […]

[2] = system: ovariectomized rat osteoporosis (OVX) model; assay: Bone mineral density (BMD) of femur by DXA in the OVX rat model; format: in vivo; conditions: OVX rats
Text: In the following experimental section dual-energy X-ray absorptiometry (DXA) was used to measure bone mineral density.
In the experimental set up data were elaborated using the ovariectomized rat osteoporosis (OVX) model. This model mimics the estrogen deficient status as found in postmenopausal women or poststerilized female pets leading to osteoporosis. The SHAM group with intact ovaries served as control. Each test group consisted of 10-12 animals. The feed used was free of isoflavones, such as, for example, genistein. […] The administration of vitamin K1, in an amount of 20 μg/kg feed corresponds to a daily dosage of about 1 μg/kg BW, the estimated daily requirement of vitamin K1. The amount of vitamin D3 was 500 IU/kg feed which corresponds to a daily dosage of 25 IU/kg BW, the estimated daily requirement. For fortification, PUFA (5% of ROPUPA “30” n-3 Food Oil) was added to the feed corresponding to a PUPA fortification of % in feed as given in Table 1. Bone mineral density, osteocalcin, and deoxypyridinolin have been measured 84 days post intervention.
Bone mineral density (BMD) measurement in the femur of OVX rats: […]

[3] = system: ovariectomized rat osteoporosis (OVX) model; assay: Deoxypyridinoline excretion (bone resorption marker) in OVX rats; format: in vivo
Method: Deoxypyridinoline (DPD) crosslinks excretion provides a highly specific marker for bone resorption. DPD crosslinks excretion was measured as a marker for bone resorption. The values have to be corrected for urinary concentration by creatinine measurement as it is known in the art.
as §1
Deoxypyridinoline (bone resorption marker) measurement in OVX rats: […]

[4] = Plasma genistein level in rats after feed admix; format: in vivo, rat; conditions: genistein 15 mg/kg BW per day, comparable to Japanese people on a traditional diet
Text: as §1

[5] = 84 days post intervention, compared with the other groups

plasma genistein level [4]: ~280 nM
SMILES: O=c1c(-c2ccc(O)cc2)coc2cc(O)cc(O)c12 [Genistein, 4′,5,7-trihydroxy-isoflavone]
Effect on serum osteocalcin levels (in words) [1, 5]: reduced osteocalcin levels to control values
Serum osteocalcin, Mean serum conc. ([1]; feed admix, day 84 postintervention): 14.6 ng/mL
Effect on BMD (in words) [2, 5]: improved BMD to control values
Bone mineral density of femur, Mean ([2]; feed admix, day 84 postintervention, DXA): 0.143 g/cm^2
Effect on DPD excretion (in words) [3, 5]: restores DPD excretion to values of the control group
Deoxypyridinoline excretion, Mean ([3]; feed admix, day 84 postintervention, corrected by creatinine): 220.5 nmol DPD/mmol Creatinine

From patent US7635692B2, “Composition for the prevention of osteoporosis comprising a combination of isoflavones and polyunsaturated fatty acids” (DSM IP Assets B.V., priority 2001, dated 2009)
